Source: EPA's CvTdb concentration-time database

How the values were obtained:
[1] = tested on: Rat; test: concentration in lung after dosing; settings: dosed: 2,3,7,8-Tetrachlorodibenzo-p-dioxin, oral, Female, Sprague-Dawley
[2] = tested on: Rat; test: concentration in liver after dosing; settings: 24 h; dosed: 2,3,7,8-Tetrachlorodibenzo-p-dioxin; 0.0001 mg/kg; oral; Female; Sprague-Dawley
[3] = tested on: Rat; test: concentration in liver after dosing; settings: dosed: 2,3,7,8-Tetrachlorodibenzo-p-dioxin, oral, Female, Sprague-Dawley
[4] = tested on: Rat; test: concentration in liver after dosing; settings: 24 h; dosed: 2,3,7,8-Tetrachlorodibenzo-p-dioxin; 0.0001 mg/kg; oral; Female; Sprague-Dawley; remark: listed apart in the source
[5] = tested on: Rat; test: concentration in liver after dosing; settings: 24 h; dosed: 2,3,7,8-Tetrachlorodibenzo-p-dioxin; 0.0001 mg/kg; oral; Female; Sprague-Dawley; remark: listed apart in the source
[6] = tested on: Rat; test: concentration in liver after dosing; settings: 24 h; dosed: 2,3,7,8-Tetrachlorodibenzo-p-dioxin; 0.0001 mg/kg; oral; Female; Sprague-Dawley; remark: listed apart in the source
[7] = tested on: Rat; test: concentration in liver after dosing; settings: 24 h; dosed: 2,3,7,8-Tetrachlorodibenzo-p-dioxin; 0.00005 mg/kg; oral; Female; Sprague-Dawley
[8] = tested on: Rat; test: concentration in plasma after dosing; settings: dosed: 2,3,7,8-Tetrachlorodibenzo-p-dioxin, 0.0001 mg/kg, oral, Female, Sprague-Dawley
[9] = tested on: Rat; test: concentration in adipose after dosing; settings: 1680 h; dosed: 2,3,7,8-Tetrachlorodibenzo-p-dioxin; 0.0001 mg/kg; oral; Female; Sprague-Dawley
[10] = tested on: Rat; test: concentration in adipose after dosing; settings: 1680 h; dosed: 2,3,7,8-Tetrachlorodibenzo-p-dioxin; 0.0001 mg/kg; oral; Female; Sprague-Dawley; remark: listed apart in the source
[11] = tested on: Rat; test: concentration in adipose after dosing; settings: 480 h; dosed: 2,3,7,8-Tetrachlorodibenzo-p-dioxin; 0.00005 mg/kg; oral; Female; Sprague-Dawley
[12] = tested on: Rat; test: concentration in adipose after dosing; settings: 2400 h; dosed: 2,3,7,8-Tetrachlorodibenzo-p-dioxin; 0.0001 mg/kg; oral; Female; Sprague-Dawley
[13] = tested on: Rat; test: concentration in adipose after dosing; settings: 8 h; dosed: 2,3,7,8-Tetrachlorodibenzo-p-dioxin; 0.0001 mg/kg; oral; Female; Sprague-Dawley
[14] = tested on: Rat; test: concentration in adipose after dosing; settings: 48 h; dosed: 2,3,7,8-Tetrachlorodibenzo-p-dioxin; 0.0001 mg/kg; oral; Female; Sprague-Dawley
[15] = tested on: Rat; test: concentration in adipose after dosing; settings: 960 h; dosed: 2,3,7,8-Tetrachlorodibenzo-p-dioxin; 0.00005 mg/kg; oral; Female; Sprague-Dawley
[16] = tested on: Rat; test: concentration in adipose after dosing; settings: dosed: 2,3,7,8-Tetrachlorodibenzo-p-dioxin, oral, Female, Sprague-Dawley
[17] = tested on: Rat; test: concentration in adipose after dosing; settings: 960 h; dosed: 2,3,7,8-Tetrachlorodibenzo-p-dioxin; 0.0001 mg/kg; oral; Female; Sprague-Dawley
[18] = tested on: Rat; test: concentration in adipose after dosing; settings: 480 h; dosed: 2,3,7,8-Tetrachlorodibenzo-p-dioxin; 0.0001 mg/kg; oral; Female; Sprague-Dawley
[19] = tested on: Rat; test: concentration in adipose after dosing; settings: 480 h; dosed: 2,3,7,8-Tetrachlorodibenzo-p-dioxin; 0.0001 mg/kg; oral; Female; Sprague-Dawley; remark: listed apart in the source
[20] = tested on: Rat; test: concentration in adipose after dosing; settings: 1680 h; dosed: 2,3,7,8-Tetrachlorodibenzo-p-dioxin; 0.0001 mg/kg; oral; Female; Sprague-Dawley; remark: listed apart in the source
[21] = tested on: Rat; test: concentration in adipose after dosing; settings: 960 h; dosed: 2,3,7,8-Tetrachlorodibenzo-p-dioxin; 0.0001 mg/kg; oral; Female; Sprague-Dawley; remark: listed apart in the source
[22] = tested on: Rat; test: concentration in adipose after dosing; settings: 48 h; dosed: 2,3,7,8-Tetrachlorodibenzo-p-dioxin; 0.0001 mg/kg; oral; Female; Sprague-Dawley; remark: listed apart in the source
[23] = tested on: Rat; test: concentration in adipose after dosing; settings: 960 h; dosed: 2,3,7,8-Tetrachlorodibenzo-p-dioxin; 0.0001 mg/kg; oral; Female; Sprague-Dawley; remark: listed apart in the source
[24] = tested on: Rat; test: concentration in adipose after dosing; settings: 480 h; dosed: 2,3,7,8-Tetrachlorodibenzo-p-dioxin; 0.0001 mg/kg; oral; Female; Sprague-Dawley; remark: listed apart in the source
[25] = tested on: Rat; test: concentration in adipose after dosing; settings: 48 h; dosed: 2,3,7,8-Tetrachlorodibenzo-p-dioxin; 0.0001 mg/kg; oral; Female; Sprague-Dawley; remark: listed apart in the source
[26] = tested on: Rat; test: concentration in adipose after dosing; settings: 48 h; dosed: 2,3,7,8-Tetrachlorodibenzo-p-dioxin; 0.0001 mg/kg; oral; Female; Sprague-Dawley; remark: listed apart in the source
[27] = tested on: Rat; test: concentration in adipose (perirenal) after dosing; settings: 960 h; dosed: 2,3,7,8-Tetrachlorodibenzo-p-dioxin; 0.0001 mg/kg; oral; Female; Sprague-Dawley
[28] = tested on: Rat; test: concentration in adipose (perirenal) after dosing; settings: 480 h; dosed: 2,3,7,8-Tetrachlorodibenzo-p-dioxin; 0.0001 mg/kg; oral; Female; Sprague-Dawley
[29] = tested on: Rat; test: concentration in adipose (perirenal) after dosing; settings: 480 h; dosed: 2,3,7,8-Tetrachlorodibenzo-p-dioxin; 0.0001 mg/kg; oral; Female; Sprague-Dawley; remark: listed apart in the source
[30] = tested on: Rat; test: concentration in adipose (perirenal) after dosing; settings: 1680 h; dosed: 2,3,7,8-Tetrachlorodibenzo-p-dioxin; 0.0001 mg/kg; oral; Female; Sprague-Dawley
[31] = tested on: Rat; test: concentration in adipose (perirenal) after dosing; settings: 48 h; dosed: 2,3,7,8-Tetrachlorodibenzo-p-dioxin; 0.00005 mg/kg; oral; Female; Sprague-Dawley
[32] = tested on: Rat; test: concentration in adipose (perirenal) after dosing; settings: dosed: 2,3,7,8-Tetrachlorodibenzo-p-dioxin, oral, Female, Sprague-Dawley
[33] = tested on: Rat; test: concentration in adipose (perirenal) after dosing; settings: 1680 h; dosed: 2,3,7,8-Tetrachlorodibenzo-p-dioxin; 0.0001 mg/kg; oral; Female; Sprague-Dawley; remark: listed apart in the source
[34] = tested on: Rat; test: concentration in adipose (perirenal) after dosing; settings: 48 h; dosed: 2,3,7,8-Tetrachlorodibenzo-p-dioxin; 0.0001 mg/kg; oral; Female; Sprague-Dawley
[35] = tested on: Rat; test: concentration in adipose (perirenal) after dosing; settings: 2400 h; dosed: 2,3,7,8-Tetrachlorodibenzo-p-dioxin; 0.0001 mg/kg; oral; Female; Sprague-Dawley
[36] = tested on: Rat; test: concentration in adipose (perirenal) after dosing; settings: 2400 h; dosed: 2,3,7,8-Tetrachlorodibenzo-p-dioxin; 0.0001 mg/kg; oral; Female; Sprague-Dawley; remark: listed apart in the source
[37] = tested on: Rat; test: concentration in adipose (perirenal) after dosing; settings: 960 h; dosed: 2,3,7,8-Tetrachlorodibenzo-p-dioxin; 0.0001 mg/kg; oral; Female; Sprague-Dawley; remark: listed apart in the source
[38] = tested on: Rat; test: concentration in adipose (perirenal) after dosing; settings: 960 h; dosed: 2,3,7,8-Tetrachlorodibenzo-p-dioxin; 0.0001 mg/kg; oral; Female; Sprague-Dawley; remark: listed apart in the source
[39] = tested on: Rat; test: concentration in adipose (perirenal) after dosing; settings: 48 h; dosed: 2,3,7,8-Tetrachlorodibenzo-p-dioxin; 0.00005 mg/kg; oral; Female; Sprague-Dawley; remark: listed apart in the source
[40] = tested on: Rat; test: concentration in adipose (perirenal) after dosing; settings: 1680 h; dosed: 2,3,7,8-Tetrachlorodibenzo-p-dioxin; 0.0001 mg/kg; oral; Female; Sprague-Dawley; remark: listed apart in the source
[41] = tested on: Rat; test: concentration in adipose (perirenal) after dosing; settings: 48 h; dosed: 2,3,7,8-Tetrachlorodibenzo-p-dioxin; 0.0001 mg/kg; oral; Female; Sprague-Dawley; remark: listed apart in the source
[42] = tested on: Rat; test: concentration in adipose (perirenal) after dosing; settings: 48 h; dosed: 2,3,7,8-Tetrachlorodibenzo-p-dioxin; 0.0001 mg/kg; oral; Female; Sprague-Dawley; remark: listed apart in the source
[43] = tested on: Rat; test: concentration in adipose (perirenal) after dosing; settings: 480 h; dosed: 2,3,7,8-Tetrachlorodibenzo-p-dioxin; 0.0001 mg/kg; oral; Female; Sprague-Dawley; remark: listed apart in the source
[44] = tested on: Rat; test: concentration in adipose (perirenal) after dosing; settings: 2400 h; dosed: 2,3,7,8-Tetrachlorodibenzo-p-dioxin; 0.0001 mg/kg; oral; Female; Sprague-Dawley; remark: listed apart in the source
[45] = tested on: Rat; test: concentration in adipose (perirenal) after dosing; settings: 48 h; dosed: 2,3,7,8-Tetrachlorodibenzo-p-dioxin; 0.0001 mg/kg; oral; Female; Sprague-Dawley; remark: listed apart in the source
[46] = tested on: Rat; test: concentration in adipose (perirenal) after dosing; settings: 48 h; dosed: 2,3,7,8-Tetrachlorodibenzo-p-dioxin; 0.0001 mg/kg; oral; Female; Sprague-Dawley; remark: listed apart in the source

Clc1cc2c(cc1Cl)Oc1cc(Cl)c(Cl)cc1O2 [2,3,7,8-Tetrachlorodibenzo-p-dioxin]
Settings	concentration in adipose, [16] [pg/g]	concentration in adipose, [32] [pg/g]	concentration in liver, [3] [pg/g]	concentration in lung, [1] [pg/g]
8 h, 0.00005 mg/kg	120	–	–	–
8 h, 0.0001 mg/kg	218	135	–	–
24 h, 0.00005 mg/kg	–	–	472	–
24 h, 0.0001 mg/kg	–	–	1630	–
48 h, 0.00005 mg/kg	–	416	–	–
48 h, 0.0001 mg/kg	303	371	–	–
480 h, 0.00005 mg/kg	110	260	271	–
480 h, 0.0001 mg/kg	428	190	307	–
960 h, 0.00005 mg/kg	93	146	205	465
960 h, 0.0001 mg/kg	171	172	–	–
1680 h, 0.0001 mg/kg	134	103	288	201
2400 h, 0.00005 mg/kg	93	–	–	–
2400 h, 0.0001 mg/kg	156	112	–	–

Settings	concentration in adipose [pg/g]	concentration in liver [pg/g]
[2]	–	1310
[4]	–	1200
[5]	–	1300
[6]	–	1450
[7]	–	515
[9]	220	–
[10]	279	–
[11]	95	–
[12]	186	–
[13]	260	–
[14]	397	–
[15]	116	–
[17]	159	–
[18]	372	–
[19]	422	–
[20]	152	–
[21]	294	–
[22]	497	–
[23]	294	–
[24]	537	–
[25]	374	–
[26]	292	–
[27]	305	–
[28]	483	–
[29]	384	–
[30]	212	–
[31]	236	–
[33]	143	–
[34]	402	–
[35]	271	–
[36]	218	–
[37]	264	–
[38]	298	–
[39]	148	–
[40]	213	–
[41]	260	–
[42]	379	–
[43]	490	–
[44]	106	–
[45]	407	–
[46]	469	–

[8]
Settings	concentration in plasma [ng/mL]
1.5 h	0.104
48 h	0.631
144 h	0.106
240 h	0.161
360 h	0.184
